Activity calls are given as the source filed them.
How the values were obtained:
Type in all cases: functional
[1] = molecular target: Cyclin-dependent kinase 2 (Homo sapiens, UniProt P24941);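 note: CDK2 measured as one member of a broad kinome profiling panel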
[2] = molecular target: Serine/threonine-protein kinase PLK4 (Homo sapiens, UniProt O00444);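 note: PLK4 measured as one member of a kinome-wide kinase profiling panel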
[3] = molecular target: Proto-oncogene tyrosine-protein kinase Src (Homo sapiens, UniProt P12931);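 note: SRC entry within a kinome-wide kinase profiling panel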
[4] = molecular target: Mitogen-activated protein kinase 12 (Homo sapiens, UniProt P53778);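 note: measured as one member of a kinome-wide kinase profiling panel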
[5] = molecular target: Tyrosine-protein kinase Lyn (Homo sapiens, UniProt P07948);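 note: lyn as one member of a kinase panel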
[6] = molecular target: Insulin-like growth factor 1 receptor (Homo sapiens, UniProt P08069); assay: Navigating the Kinome. Panel member name: IGF1R
[7] = molecular target: Tyrosine-protein kinase JAK2 (Homo sapiens, UniProt O60674);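 note: JAK2 tested as one member of a kinase panel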
[8] = molecular target: Casein kinase II subunit alpha (Homo sapiens, UniProt P68400)
[9] = molecular target: T1, Tyrosine-protein kinase ITK/TSK (Homo sapiens, UniProt Q08881);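 note: affinity for ITK measured as one member of a broad kinase panel profiling binding across the kinome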
T1 sequence (Q08881 whole entry): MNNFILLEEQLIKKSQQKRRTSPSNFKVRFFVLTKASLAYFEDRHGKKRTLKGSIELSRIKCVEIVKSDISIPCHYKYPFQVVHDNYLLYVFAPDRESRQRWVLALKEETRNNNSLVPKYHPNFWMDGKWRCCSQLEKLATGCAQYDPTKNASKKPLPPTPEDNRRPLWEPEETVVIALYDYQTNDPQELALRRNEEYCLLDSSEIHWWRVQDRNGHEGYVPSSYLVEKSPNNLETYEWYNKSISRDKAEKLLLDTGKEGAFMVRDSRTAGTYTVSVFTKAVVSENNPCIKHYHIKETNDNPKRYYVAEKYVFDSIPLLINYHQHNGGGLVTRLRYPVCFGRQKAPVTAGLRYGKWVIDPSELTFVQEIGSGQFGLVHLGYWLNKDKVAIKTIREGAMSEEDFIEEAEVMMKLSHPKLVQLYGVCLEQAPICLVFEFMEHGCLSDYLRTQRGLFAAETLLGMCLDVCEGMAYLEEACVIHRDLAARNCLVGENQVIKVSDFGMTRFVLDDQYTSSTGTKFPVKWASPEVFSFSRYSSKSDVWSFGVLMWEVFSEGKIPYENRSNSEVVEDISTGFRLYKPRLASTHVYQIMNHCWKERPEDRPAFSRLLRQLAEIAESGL

[10] = molecular target: MAP/microtubule affinity-regulating kinase 3 (Homo sapiens, UniProt P27448);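 note: MARK3 affinity measured as one member of a kinome panel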
[11] = molecular target: Serine/threonine-protein kinase Chk2 (Homo sapiens, UniProt O96017);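 note: CHEK2 entry within a kinome-wide screening panel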
[12] = molecular target: T2, Interleukin-1 receptor-associated kinase 4 (Homo sapiens, UniProt Q9NWZ3)
T2 sequence (Q9NWZ3 whole entry): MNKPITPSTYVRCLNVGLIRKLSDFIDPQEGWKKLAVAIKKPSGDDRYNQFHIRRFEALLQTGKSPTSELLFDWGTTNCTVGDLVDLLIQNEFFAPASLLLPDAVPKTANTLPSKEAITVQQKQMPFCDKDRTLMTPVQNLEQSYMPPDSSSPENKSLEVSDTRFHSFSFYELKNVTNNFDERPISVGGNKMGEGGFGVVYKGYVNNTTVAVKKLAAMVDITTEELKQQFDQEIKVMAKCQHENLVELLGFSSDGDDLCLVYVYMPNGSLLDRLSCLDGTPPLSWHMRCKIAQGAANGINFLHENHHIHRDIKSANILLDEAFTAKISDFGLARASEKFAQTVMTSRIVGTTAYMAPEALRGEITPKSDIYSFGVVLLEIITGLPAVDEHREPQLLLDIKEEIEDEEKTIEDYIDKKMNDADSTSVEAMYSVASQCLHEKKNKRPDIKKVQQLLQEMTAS

[13] = molecular target: Cyclin-dependent kinase 5 (Homo sapiens, UniProt Q00535);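 note: CDK5 measured as one member of a kinase profiling panel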
[14] = molecular target: Tyrosine-protein kinase ABL1 (Homo sapiens, UniProt P00519)
[15] = molecular target: Ribosomal protein S6 kinase beta-1 (Homo sapiens, UniProt P23443);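 note: measured as one member of a kinome-wide profiling panel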
[16] = molecular target: Cyclin-dependent kinase 1 (Homo sapiens, UniProt P06493);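 note: Kinome-wide panel profiling, with the target listed as panel member CDC2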
[17] = molecular target: 5'-AMP-activated protein kinase catalytic subunit alpha-1 (Homo sapiens, UniProt Q13131)
[18] = molecular target: Mitogen-activated protein kinase 8 (Homo sapiens, UniProt P45983);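 note: value comes from one member of a kinome-wide kinase profiling panel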
[19] = molecular target: BDNF/NT-3 growth factors receptor (Homo sapiens, UniProt Q16620);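 note: NTRK2 measured as one member of a broad kinome-wide kinase profiling panel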
[20] = molecular target: Fibroblast growth factor receptor 3 (Homo sapiens, UniProt P22607)
[21] = molecular target: Vascular endothelial growth factor receptor 3 (Homo sapiens, UniProt P35916);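 note: value from a kinome-wide profiling panel, with FLT4 as the panel member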
[22] = molecular target: High affinity nerve growth factor receptor (Homo sapiens, UniProt P04629);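 note: NTRK1 tested as one member of a kinome-wide profiling panel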
[23] = molecular target: Mitogen-activated protein kinase 1 (Homo sapiens, UniProt P28482)
[24] = molecular target: Rho-associated protein kinase 1 (Homo sapiens, UniProt Q13464);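 note: measured within a broad kinome-wide panel profiling many kinases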
Insulin receptor = Insulin receptor (Homo sapiens, UniProt P06213);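 note: insulin receptor kinase tested as one member of a kinome-wide kinase panel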
[25] = molecular target: Serine/threonine-protein kinase pim-2 (Homo sapiens, UniProt Q9P1W9);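 note: value comes from a broad kinase panel profiling study in which PIM2 was one of the panel members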
[26] = molecular target: Tyrosine-protein kinase Fyn (Homo sapiens, UniProt P06241)
[27] = molecular target: Non-receptor tyrosine-protein kinase TYK2 (Homo sapiens, UniProt P29597)
[28] = molecular target: Hepatocyte growth factor receptor (Homo sapiens, UniProt P08581);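 note: kinase panel profiling across the kinome, with MET as the panel member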
[29] = molecular target: 3-phosphoinositide-dependent protein kinase 1 (Homo sapiens, UniProt O15530);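 note: value comes from the Navigating the Kinome panel, PDPK1 member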

Sequence of Proto-oncogene tyrosine-protein kinase Src (P12931 2-536 limits assumed): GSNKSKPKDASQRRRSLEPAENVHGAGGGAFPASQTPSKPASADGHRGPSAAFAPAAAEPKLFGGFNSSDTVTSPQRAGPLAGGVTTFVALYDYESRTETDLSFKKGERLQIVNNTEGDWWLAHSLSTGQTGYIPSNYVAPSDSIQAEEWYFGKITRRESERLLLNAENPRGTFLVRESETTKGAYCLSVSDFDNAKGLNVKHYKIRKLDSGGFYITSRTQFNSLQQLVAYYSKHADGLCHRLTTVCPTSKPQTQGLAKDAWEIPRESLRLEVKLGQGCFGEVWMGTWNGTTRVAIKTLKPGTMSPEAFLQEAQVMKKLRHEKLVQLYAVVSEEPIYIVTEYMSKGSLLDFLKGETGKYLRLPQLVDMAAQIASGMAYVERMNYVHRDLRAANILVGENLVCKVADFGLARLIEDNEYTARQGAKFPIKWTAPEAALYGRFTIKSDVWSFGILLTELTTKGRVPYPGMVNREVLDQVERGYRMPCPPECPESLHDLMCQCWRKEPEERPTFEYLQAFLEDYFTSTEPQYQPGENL
Sequence of High affinity nerve growth factor receptor (P04629 whole entry): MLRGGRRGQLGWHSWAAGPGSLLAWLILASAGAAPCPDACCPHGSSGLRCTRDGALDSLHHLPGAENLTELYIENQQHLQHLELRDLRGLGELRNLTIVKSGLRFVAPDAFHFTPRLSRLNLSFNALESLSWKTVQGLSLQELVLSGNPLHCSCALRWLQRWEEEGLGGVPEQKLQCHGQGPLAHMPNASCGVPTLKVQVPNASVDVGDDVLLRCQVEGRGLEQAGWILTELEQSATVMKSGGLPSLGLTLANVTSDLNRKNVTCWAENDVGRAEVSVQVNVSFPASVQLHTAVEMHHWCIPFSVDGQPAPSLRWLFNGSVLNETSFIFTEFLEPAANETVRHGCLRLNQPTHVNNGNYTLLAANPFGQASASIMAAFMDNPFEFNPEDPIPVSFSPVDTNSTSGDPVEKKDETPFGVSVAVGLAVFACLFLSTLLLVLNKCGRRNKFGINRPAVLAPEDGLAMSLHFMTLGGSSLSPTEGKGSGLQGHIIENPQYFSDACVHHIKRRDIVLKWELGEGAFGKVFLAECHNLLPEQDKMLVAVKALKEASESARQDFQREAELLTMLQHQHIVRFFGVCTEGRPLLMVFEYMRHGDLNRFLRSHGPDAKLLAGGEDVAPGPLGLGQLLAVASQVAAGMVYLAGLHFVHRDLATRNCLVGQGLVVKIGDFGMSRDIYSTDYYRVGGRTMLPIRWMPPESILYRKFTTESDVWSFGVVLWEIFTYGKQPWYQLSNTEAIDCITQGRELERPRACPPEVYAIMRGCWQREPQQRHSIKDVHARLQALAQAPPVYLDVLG
Sequence of Serine/threonine-protein kinase pim-2 (Q9P1W9 whole entry): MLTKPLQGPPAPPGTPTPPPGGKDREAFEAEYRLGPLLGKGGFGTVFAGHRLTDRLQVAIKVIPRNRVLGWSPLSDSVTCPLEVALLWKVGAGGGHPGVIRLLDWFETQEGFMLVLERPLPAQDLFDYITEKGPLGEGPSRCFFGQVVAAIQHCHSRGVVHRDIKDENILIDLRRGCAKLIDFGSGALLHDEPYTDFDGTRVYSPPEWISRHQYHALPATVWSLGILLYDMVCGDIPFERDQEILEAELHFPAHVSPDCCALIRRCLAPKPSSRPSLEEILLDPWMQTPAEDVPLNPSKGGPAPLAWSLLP
Sequence of Hepatocyte growth factor receptor (P08581 whole entry): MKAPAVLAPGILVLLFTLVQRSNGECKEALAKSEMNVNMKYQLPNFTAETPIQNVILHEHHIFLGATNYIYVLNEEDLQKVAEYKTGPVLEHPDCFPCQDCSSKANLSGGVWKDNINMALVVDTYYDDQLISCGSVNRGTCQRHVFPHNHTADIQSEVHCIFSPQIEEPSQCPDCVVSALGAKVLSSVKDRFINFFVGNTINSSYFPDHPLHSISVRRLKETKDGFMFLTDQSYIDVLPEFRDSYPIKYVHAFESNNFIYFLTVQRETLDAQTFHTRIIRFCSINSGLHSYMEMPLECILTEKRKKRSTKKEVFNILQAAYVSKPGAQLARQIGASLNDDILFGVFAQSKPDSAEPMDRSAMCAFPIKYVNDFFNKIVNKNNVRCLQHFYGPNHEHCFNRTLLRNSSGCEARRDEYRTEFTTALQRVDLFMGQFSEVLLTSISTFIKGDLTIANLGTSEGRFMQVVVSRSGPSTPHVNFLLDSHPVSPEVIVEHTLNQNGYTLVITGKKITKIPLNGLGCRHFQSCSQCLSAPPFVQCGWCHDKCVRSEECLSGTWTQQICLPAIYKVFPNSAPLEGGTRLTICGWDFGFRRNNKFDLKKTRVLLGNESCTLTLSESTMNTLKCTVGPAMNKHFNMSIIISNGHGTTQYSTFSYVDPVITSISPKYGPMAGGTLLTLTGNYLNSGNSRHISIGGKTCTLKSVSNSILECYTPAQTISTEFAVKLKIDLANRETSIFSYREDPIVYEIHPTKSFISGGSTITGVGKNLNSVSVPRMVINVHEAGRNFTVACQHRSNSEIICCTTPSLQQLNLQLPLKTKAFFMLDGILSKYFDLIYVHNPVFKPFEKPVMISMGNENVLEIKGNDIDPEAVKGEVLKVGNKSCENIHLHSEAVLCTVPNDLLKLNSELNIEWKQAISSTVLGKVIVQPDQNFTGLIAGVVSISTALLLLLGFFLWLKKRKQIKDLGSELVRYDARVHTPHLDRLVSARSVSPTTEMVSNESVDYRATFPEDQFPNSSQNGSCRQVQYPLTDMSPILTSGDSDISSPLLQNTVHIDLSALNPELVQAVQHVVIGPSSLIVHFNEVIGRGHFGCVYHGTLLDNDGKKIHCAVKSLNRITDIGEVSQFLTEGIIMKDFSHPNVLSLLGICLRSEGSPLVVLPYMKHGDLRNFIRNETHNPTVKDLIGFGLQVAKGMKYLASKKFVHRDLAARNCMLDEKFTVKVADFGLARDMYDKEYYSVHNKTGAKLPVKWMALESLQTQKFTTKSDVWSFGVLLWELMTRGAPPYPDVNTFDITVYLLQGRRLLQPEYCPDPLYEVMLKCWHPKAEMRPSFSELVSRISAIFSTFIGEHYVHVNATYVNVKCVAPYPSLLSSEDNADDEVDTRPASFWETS
Sequence of Mitogen-activated protein kinase 12 (P53778 whole entry): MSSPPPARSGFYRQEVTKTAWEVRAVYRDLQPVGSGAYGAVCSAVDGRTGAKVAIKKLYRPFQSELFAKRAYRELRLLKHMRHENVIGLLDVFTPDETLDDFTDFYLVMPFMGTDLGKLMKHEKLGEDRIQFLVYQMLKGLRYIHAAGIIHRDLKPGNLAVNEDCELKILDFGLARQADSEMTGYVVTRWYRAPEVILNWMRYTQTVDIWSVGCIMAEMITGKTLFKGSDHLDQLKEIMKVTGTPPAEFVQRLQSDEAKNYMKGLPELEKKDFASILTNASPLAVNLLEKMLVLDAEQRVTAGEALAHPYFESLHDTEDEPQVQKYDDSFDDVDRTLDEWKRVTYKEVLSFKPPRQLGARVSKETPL
Sequence of BDNF/NT-3 growth factors receptor (Q16620 whole entry): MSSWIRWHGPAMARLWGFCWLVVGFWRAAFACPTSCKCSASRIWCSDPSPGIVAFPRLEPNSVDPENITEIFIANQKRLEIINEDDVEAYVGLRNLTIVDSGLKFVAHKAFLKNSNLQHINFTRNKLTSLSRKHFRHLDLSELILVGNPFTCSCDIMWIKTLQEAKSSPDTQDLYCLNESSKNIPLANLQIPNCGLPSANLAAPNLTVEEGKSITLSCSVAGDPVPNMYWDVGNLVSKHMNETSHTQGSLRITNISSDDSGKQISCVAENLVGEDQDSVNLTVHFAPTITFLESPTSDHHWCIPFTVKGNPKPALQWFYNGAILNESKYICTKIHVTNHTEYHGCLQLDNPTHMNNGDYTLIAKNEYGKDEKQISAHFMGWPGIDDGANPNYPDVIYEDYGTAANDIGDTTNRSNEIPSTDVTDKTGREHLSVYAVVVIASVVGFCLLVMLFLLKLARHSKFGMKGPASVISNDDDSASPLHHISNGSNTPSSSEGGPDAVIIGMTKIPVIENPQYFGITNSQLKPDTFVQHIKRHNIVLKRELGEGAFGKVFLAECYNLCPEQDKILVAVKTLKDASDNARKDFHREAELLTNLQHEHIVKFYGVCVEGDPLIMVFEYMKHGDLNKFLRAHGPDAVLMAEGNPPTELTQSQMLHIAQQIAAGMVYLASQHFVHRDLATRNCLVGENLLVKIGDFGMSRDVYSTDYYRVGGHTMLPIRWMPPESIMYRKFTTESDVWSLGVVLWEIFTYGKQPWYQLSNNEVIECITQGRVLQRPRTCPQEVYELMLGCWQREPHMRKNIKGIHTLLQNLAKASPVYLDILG
Sequence of Tyrosine-protein kinase Fyn (P06241 whole entry): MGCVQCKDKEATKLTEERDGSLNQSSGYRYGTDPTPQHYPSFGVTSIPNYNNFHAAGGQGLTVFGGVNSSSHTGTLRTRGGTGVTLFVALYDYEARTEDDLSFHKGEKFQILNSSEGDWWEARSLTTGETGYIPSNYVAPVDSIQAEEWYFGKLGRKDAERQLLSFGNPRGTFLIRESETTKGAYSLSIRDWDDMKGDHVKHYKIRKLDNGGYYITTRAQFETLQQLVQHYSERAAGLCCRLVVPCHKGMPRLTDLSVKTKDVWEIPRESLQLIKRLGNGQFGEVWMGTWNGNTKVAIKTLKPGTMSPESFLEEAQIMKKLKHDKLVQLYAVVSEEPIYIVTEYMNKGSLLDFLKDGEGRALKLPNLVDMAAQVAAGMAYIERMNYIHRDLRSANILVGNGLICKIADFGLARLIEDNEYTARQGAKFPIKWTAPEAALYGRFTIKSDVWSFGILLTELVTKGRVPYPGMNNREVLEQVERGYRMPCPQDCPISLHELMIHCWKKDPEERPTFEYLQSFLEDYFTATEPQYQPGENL
Sequence of Cyclin-dependent kinase 5 (Q00535 whole entry): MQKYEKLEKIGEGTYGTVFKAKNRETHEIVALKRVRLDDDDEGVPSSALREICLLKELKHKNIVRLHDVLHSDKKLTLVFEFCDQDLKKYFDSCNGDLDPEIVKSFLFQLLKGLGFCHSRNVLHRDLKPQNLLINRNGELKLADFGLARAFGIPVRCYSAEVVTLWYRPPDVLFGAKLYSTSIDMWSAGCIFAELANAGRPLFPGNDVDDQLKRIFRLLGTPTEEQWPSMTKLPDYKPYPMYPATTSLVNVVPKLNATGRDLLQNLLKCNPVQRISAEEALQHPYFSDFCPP

Ki [1]	Ki [2]	Ki [3]	Ki [4]	Ki [5]	Ki [6]	Ki [7]	Ki [8]	Ki [9]	Ki [10]	Ki [11]	Ki [12]	Ki [13]	Ki [14]	Ki [15]	Ki [16]	Ki [17]	Ki [18]	Ki [19]	Ki [20]	further results	Structure (SMILES)
10 nM (active)	2510 nM (active)	> 2000 nM (inactive)	1000 nM (active)	> 1580 nM (inactive)	> 2000 nM (inactive)	> 1580 nM (inactive)	794 nM (active)	> 1580 nM (inactive)	63.1 nM (active)	79.4 nM (active)	398 nM (active)	63.1 nM (active)	> 631 nM (inactive)	12.6 nM (active)	31.6 nM (active)	12.6 nM (active)	> 3160 nM (inactive)	> 5010 nM (inactive)	> 2000 nM (inactive)	Ki [21]: 3160 nM (active); Ki [22]: > 2510 nM (inactive); Ki [23]: 631 nM (active); Ki [24]: 7.94 nM (active); Ki (Insulin receptor): > 5010 nM (inactive); Ki [25]: 1.26 nM (active); Ki [26]: > 794 nM (inactive); Ki [27]: > 2000 nM (inactive); Ki [28]: > 3160 nM (inactive); Ki [29]: 200 nM (active)	Cc1n[nH]c2cnc(-c3cncc(OCC(N)Cc4cccc(C(F)(F)F)c4)c3)cc12 (stereo not given)
> 7940 nM (inactive)	794 nM (active)	1580 nM (active)	> 6310 nM (inactive)	1580 nM (active)	> 1000 nM (inactive)	> 1580 nM (inactive)	63.1 nM (active)	398 nM (active)	> 6310 nM (inactive)	> 10000 nM (inactive)	3980 nM (active)	> 10000 nM (inactive)	> 631 nM (inactive)	1260 nM (active)	> 7940 nM (inactive)	> 10000 nM (inactive)	> 3160 nM (inactive)	> 5010 nM (inactive)	> 2000 nM (inactive)	Ki [21]: 794 nM (active); Ki [22]: > 2510 nM (inactive); Ki [23]: > 7940 nM (inactive); Ki [24]: > 10000 nM (inactive); Ki (Insulin receptor): > 5010 nM (inactive); Ki [25]: > 1580 nM (inactive); Ki [26]: 398 nM (active); Ki [27]: > 2000 nM (inactive); Ki [28]: > 3160 nM (inactive); Ki [29]: > 3980 nM (inactive)	Cc1c(C=O)c(O)n2c(nc3ccccc32)c1C#N

Source: ChEMBL document CHEMBL1201862, “PubChem BioAssay data set” (2004)
